We go through two molecules from patent US9387183B2, “Method of treating diabetes-related impaired wound healing” (KUWAIT UNIVERSITY, priority 2011, dated 2016).

Assay [1] in a line: Global physiological characteristics of diabetic rats (weights, plasma and wound fluid hormones, oxidative stress). The assay is classed as in vivo, rat. The note with it: for Plasma F2 Isoprostanes: index of oxidative stress. On the procedure: All animal procedures were performed in accordance with the NIH Guidance for the Care and Use of Laboratory Animals. The current study used the mildly hyperglycemic, non-obese Goto-Kakizaki (GK) spontaneously diabetic rats, produced by selective inbreeding of glucose-intolerant Wistar rats as a genetic model for type 2 diabetes. Weight-matched female Wistar rats (Kuwait University breeding colony) served as controls. All animals were maintained under standard conditions with 12 hours on/off light cycle, commercial diet, and water ad libitum. Rats destined for various experimental manipulations, including wounding, insulin sensitivity, and drug treatment, were initially matched with regard to body weight (e.g., 230 to 250 g), plasma levels of glucose, free fatty acids and insulin. These indices are commonly used to reflect the severity of the diabetic state.
Cycling control rats in proestrus were used as a reference group. Similarly, the diabetic rats were also treated with PEG-sTNF-RI, a soluble long-lasting form of TNF-RI that neutralizes TNF-α action. […] All of the treatment regimens used with the diabetic rats were given for at least three weeks before wound initiation, and this form of treatment continued during the course of wound healing.
Animals were sacrificed at 3 and 7 days post-wounding. An area that included the complete epithelial margins was excised, and the wounds were bisected and processed so that the mid-point of the wound was sectioned and compared between groups. The resulting specimens were either fixed in 4% paraformaldehyde in phosphate-sucrose buffer and analyzed histologically, or flash frozen in liquid nitrogen and stored at −80° C. prior to biochemical analysis, or embedded in Optimum Cutting Temperature (OCT) compound and immediately frozen in liquid nitrogen for immunofluorescence analysis. It is worthy of note that the number of wounds used for most of the aforementioned studies were in the range of 48 to 60 wounds per treatment. Some parameters related to sex hormones and oxidative stress were measured in serum or wound fluids, which were collected on day 7 post-wounding from subcutaneously inserted stainless steel mesh chambers.

The subject of assay [2] is TGF-β1-Smad signaling pathway. The experiment in a line: TGF-β/Smad-dependent signaling in diabetic wounds. It counts as in vivo, rat. The note with it: wounds from treated diabetic rats, day 7; for TGF-βRII expression: FIG. 3D; for phospho-Smad2: FIG. 3E; for Smad7 levels: FIG. 3F. On the procedure:
Samples of the total cellular and nuclear extracts were subjected to protein determinations using the Bicinchoninic Acid Protein Assay Kit (Pierce). For western blotting, an equal volume of 2×SDS sample buffer was added, and the samples were denatured by boiling for 5 minutes. Proteins were applied to SDS-polyacrylamide gel electrophoresis (SDS-PAGE) and transferred to an Immobilon polyvinylidene difluoride membrane (BioRad). The membranes were blocked with tris buffered saline containing 0.05% Tween 20 and 5% skim milk, and then treated with a number of primary antibodies, including Smad2/p-Smad2 (Cell Signaling), Smad7 (Imgenex), and β3-integrin (Santa Cruz). Protein bands were visualized by chemiluminescence (Pierce), and band intensity was determined using Bio-Rad densitometer. Unless otherwise specified, β-actin was used to standardize the quantity of sample protein for all Western blotting analyses.

The next assay concerns wound macrophage markers. The note with it: diabetic wounds.
In assay [3] the test system is GK diabetic rats. In words: Full-thickness excisional wound healing in GK diabetic rats (closure, re-epithelialization, ECM deposition). The conditions noted are these: diabetic wounds.
The subject of assay [4] is rheumatoid arthritis in rat models. The conditions noted are these: subcutaneous administration, dose of 0.3 mg/kg; cited from earlier work.
Assay [5] concerns GK diabetic rats. The experiment in a line: Insulin sensitivity clamp (Rapid Insulin Sensitivity Test) in female diabetic rats.
In the next assay the test system is NF-κB. In words: NF-κB p65-DNA binding activity in wounds. The conditions noted are these: wounds from treated diabetic rats; FIG. 5G. It counts as in vivo, rat.
Where [6] appears, read: GK diabetic rats treated, plasma, mean±SEM.
[7] abbreviates: GK diabetic rats treated, wound fluid day 7 post-wounding, mean±SEM.
[8] abbreviates: female GK diabetic rats treated, mean±SEM.

Procedure for NF-κB: To assess protein expression and NF-κB activation, frozen liquid nitrogen powdered wounded tissues or serum starved RDFs/HDFs were homogenized on ice in a RIPA buffer (50 mM Tris pH 7.4, 150 mM NaCl, 10 mM EDTA, 2 mM sodium vanadate, 150 mM sodium fluoride, 0.5% sodium deoxycholate, 1% Triton X-100, and a cocktail of protease inhibitors) for total cellular proteins, or with a hypotonic buffer A (10 mM HEPES pH 7.9, 10 mM KCl, 2 mM MgCl2, 0.1 mM EDTA, 1.0 mM DTT, 0.5 mM PMSF, 20 mM NaF, 1 mM sodium orthovanadate and a cocktail of protease inhibitors) for the nuclear protein extraction. […] Similarly, the hypotonic buffer-dependent homogenates (500 μl) were incubated on ice for 20 minutes, after which 50 μl of 10% NP-40 was added. The mixture was vortexed and centrifuged (5000×g, 1 min, 4° C.). […]
A quantitative analysis of p65-DNA binding activity was performed on the nuclear protein extracts using the ELISA-based TransAM NFκB Transcription Factor Assay Kit (Active Motif) according to the manufacturer's instruction. […] The activated transcription factor, specifically bound to the immobilized oligonucleotide, was detected using an antibody directed against NF-κB and a secondary antibody conjugated to horseradish peroxidase. The developing solution was then added, and the OD (450-665 mm) was measured using a microplate reader (Thermo Scientific). Results were expressed as % of control.

In the case of `C[C@]12CC[C@@H]3c4ccc(O)cc4CC[C@H]3[C@@H]1CC[C@@H]2O` [E2, β-estradiol], the “Weight (g) Uterus” value in assay [1] (GK diabetic rats treated, mean±SEM) is reported as 0.41 ± 0.04 g. Also, in assay [1] (setting [6]), the “Plasma F2 Isoprostanes” value is 47 ± 6.6 pg/mL and the “Plasma Testosterone” value stood at 849 ± 85 pg/mL. In addition, in assay [1] (setting [7]), the “Wound fluid F2 Isoprostanes” value is 43 ± 4.4 pg/mL and the “Wound fluid Testosterone” value was 456 ± 47 pg/mL. Also, in assay [1] (GK diabetic rats, Table 1), the “diabetes-related abnormalities (testosterone, F2 isoprostanes, uterine weights, plasma and wound E2 levels)” value was “Most of the aforementioned abnormalities were normalized”. In assay [2], the TGF-βRII expression entry was “augmented”, the phospho-Smad2 result is recorded as “augmented” and the Smad7 levels result is “decreased”. In the assay on wound macrophage markers (FIG. 5C-E), the “up-regulation in M1 macrophage-derived markers, together with the resolution of inflammation within the diabetic wound microenvironment” value was “normalized”. In addition, the “diabetes-related decrease in the expression of wound M2 macrophage phenotype” value in the assay on wound macrophage markers (FIGS. 2F, 2G, 3A, 3B, 5F) was “partial reversal”.
Regarding “TNFR1: soluble pegylated long-lasting form of TNF-RI (Amgen) that neutralizes TNF-α action”, in assay [1] (setting [6]), the “Plasma F2 Isoprostanes” value came to 69 ± 8.4 pg/mL. Besides, the “Wound fluid F2 Isoprostanes” value in assay [1] (setting [7]) is 59 ± 5.2 pg/mL. The “deposition of ECM” value in the assay with GK diabetic rats [3] (FIG. 2A-D) is “significant improvement”. The “healing process, at the macroscopic and microscopic levels” value in the assay on GK diabetic rats [3] (FIGS. 1A and B) is recorded as “significant improvement”. Moreover, in assay [2], the TGF-βRII expression entry was “augmented”, the phospho-Smad2 result is listed as “augmented” and the Smad7 levels entry is listed as “decreased”. Moreover, the “inflammatory reaction of rheumatoid arthritis” value in assay [4] is reported as “appears to limit the inflammatory reaction”. Also, in the assay with GK diabetic rats [5] (diabetic animals, Table 2), the “effect on carbohydrate tolerance” value is reported as “favorable effect”, the hyperinsulinemic state entry is on record as “partially ameliorated” and the “target tissue sensitivity to insulin (increase in glucose infusion rate)” value is “significantly improved”. Also, the “GIR: Glucose infusion rate” value in the assay with GK diabetic rats [5] (female GK diabetic rats treated, clamp, mean±SEM) was 18.53 ± 1.49 mg/min/kg body wt. Also, in the assay with GK diabetic rats [5] (setting [8]), the “FBG: Fasting blood glucose” value is 125 ± 17 mg/dL, the “FPI: Fasting plasma insulin” value was found to be 0.68 ± 0.05 ng/mL and the “PCPI: Post clamp plasma insulin” value was found to be 4.61 ± 0.4 ng/mL. The NF-κB activity entry in the assay on NF-κB is “significant decrease”. Besides, the pro-resolving/M2 polarizing effect entry with wound macrophage markers is “recapitulated”.
